From patent US20170247326A1, “Substituted Pyrrolidine Carboxamide Compounds” (EPIZYME, INC., priority 2014, published 2017) come the findings set out here.

The structures appear in SMILES notation. A value given as a limit tells only on which side of the number the result lay.

For the assay, the target named is T1, SMYD2 (Homo sapiens, UniProt Q9NRG4).
T1 construct: Full length SMYD2 (NP_064582.2) was cloned; His6 (N, cleaved yes); FLAG (N); made in house; host or cells: Sf9 insect cells
Kind of assay: SMYD2 biochemical assay (3H-SAM, biotinylated peptide substrate, Flashplate). The following applies: Table 3; average of n = 1 to n = 50; read-out: SMYD2 Biochem IC50. The text has this: S-adenosylmethionine (SAM), S-adenosylhomocysteine (SAH), bicine, Tween20, dimethylsulfoxide (DMSO), bovine skin gelatin (BSG), and Tris(2-carboxyethyl)phosphine hydrochloride (TCEP) were purchased from Sigma-Aldrich at the highest level of purity possible. ^3H-SAM was purchase from American Radiolabeled Chemicals with a specific activity of 80 Ci/mmol. 384-well streptavidin Flashplates were purchased from PerkinElmer.
Peptide was synthesized with a N-terminal linker-affinity tag motif and a C-terminal amide cap by 21st Century Biochemicals. The peptide was high high-performance liquid chromatography (HPLC) purified to greater than 95% purity and confirmed by liquid chromatography mass spectrometry (LC-MS). The sequence was […](K-Biot)-amide. (SEQ ID NO: 3)
Full length SMYD2 (NP_064582.2) was cloned into a pFastbac-Htb-lic vector with an N-terminal His6 tag and FLAG tag, preceded by a TEV protease cleavage site. The protein was expressed in Sf9 insect cells. Cells were resuspended in lysis buffer (25 mM HEPES-NaOH, pH 7.5, 200 mM NaCl, 5% glycerol, and 5 mM […] and lysed by sonication. The protein was purified by Ni-NTA (Qiagen), followed by TEV cleavage to remove the His6 tag, subtractive Ni-NTA (Qiagen), and gel filtration chromatography using an S200 column (GE Healthcare). Purified protein was stored in 20 mM Tris-HCl, pH 8.0, 100 mM NaCl, and 1 mM TCEP.
General Procedure for SMYD2 Enzyme Assays on Peptide Substrates
The assays were all performed in a buffer consisting of 20 mM Bicine (pH=7.6), 1 mM TCEP, 0.005% Bovine Skin Gelatin, and 0.002% Tween20, prepared on the day of use. Compounds in 100% DMSO (1 ul) were spotted into a polypropylene 384-well V-bottom plates (Greiner) using a Platemate Plus outfitted with a 384-channel head (Thermo Scientific). DMSO (1 ul) was added to Columns 11, 12, 23, 24, rows A-H for the maximum signal control and 1 ul of SAH, a known product and inhibitor of SMYD2, was added to columns 11, 12, 23, 24, rows I-P for the minimum signal control. A cocktail (40 ul) containing the SMYD2 enzyme was added by Multidrop Combi (Thermo-Fisher). The compounds were allowed to incubate with SMYD2 for 30 min at room temperature, then a cocktail (10 ul) containing ^3H-SAM and peptide was added to initiate the reaction (final volume=51 ul). The final concentrations of the components were as follows: SMYD2 was 1.5 nM, ^3H-SAM was 10 nM, and peptide was 60 nM, SAH in the minimum signal control wells was 1000 uM, and the DMSO concentration was 2%. The assays were stopped by the addition of non-radioactive SAM (10 ul) to a final concentration of 600 uM, which dilutes the ^3H-SAM to a level where its incorporation into the peptide substrate is no longer detectable. 50 ul of the reaction in the 384-well polypropylene plate was then transferred to a 384-well Flashplate and the biotinylated peptides were allowed to bind to the streptavidin surface for at least 1 hour before being washed three times with 0.1% Tween20 in a Biotek ELx405 plate washer. The plates were then read in a PerkinElmer TopCount plate reader to measure the quantity of ^3H-labeled peptide bound to the Flashplate surface, measured as disintegrations per minute (dpm) or alternatively, referred to as counts per minute (cpm).
Where dpm=disintegrations per minute, cmpd=signal in assay well, and min and max are the respective minimum and maximum signal controls.
Where top and bottom are the normally allowed to float, but may be fixed at 100 or 0 respectively in a 3-parameter fit. The Hill Coefficient normally allowed to float but may also be fixed at 1 in a 3-parameter fit. I is the compound concentration.
SMYD2 biochemical assay data for representative Compounds of the Disclosure are presented in Tables 1, 3, and 4 in the column titled “SMYD2 Bicohem IC50 (μM).”

In general, IC50 refers to the concentration that inhibits the measured activity by half.

T1 sequence (Q9NRG4 whole entry): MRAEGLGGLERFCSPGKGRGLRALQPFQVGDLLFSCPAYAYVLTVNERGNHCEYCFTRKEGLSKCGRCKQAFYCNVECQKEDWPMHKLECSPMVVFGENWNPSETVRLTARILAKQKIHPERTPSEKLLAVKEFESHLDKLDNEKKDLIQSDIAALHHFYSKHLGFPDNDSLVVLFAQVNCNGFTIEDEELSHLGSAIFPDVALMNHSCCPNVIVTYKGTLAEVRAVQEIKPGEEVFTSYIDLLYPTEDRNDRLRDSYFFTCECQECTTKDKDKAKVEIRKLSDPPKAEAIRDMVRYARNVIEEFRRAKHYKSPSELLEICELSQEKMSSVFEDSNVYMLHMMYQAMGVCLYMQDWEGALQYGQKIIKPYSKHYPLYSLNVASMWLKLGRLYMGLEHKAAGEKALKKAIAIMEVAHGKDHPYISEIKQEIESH

Consider `CC(C)N1C[C@H](C)[C@H](NC(=O)c2cn(C3CC3)nn2)C1` (racemic) [compound 27, (±)-cis-1-cyclopropyl-N-[4-methyl-1-(propan-2-yl)pyrrolidin-3-yl]-1H-1,2,3-triazole-4-carboxamide], for which the IC50 was 0.781 µM.

On to `CC(C)N1C[C@@H](C)[C@H](NC(=O)c2ccc3c(c2)OCC(=O)N3)C1` (racemic) [compound 28, (±)-trans-N-[4-methyl-1-(propan-2-yl)pyrrolidin-3-yl]-3-oxo-3,4-dihydro-2H-1,4-benzoxazine-7-carboxamide], for which the IC50 is > 50 µM.

Take `CC(C)N1C[C@H](C)[C@H](NC(=O)c2ccc3c(c2)OCC(=O)N3)C1` (racemic) [compound 29, (±)-cis-N-[4-methyl-1-(propan-2-yl)pyrrolidin-3-yl]-3-oxo-3,4-dihydro-2H-1,4-benzoxazine-7-carboxamide]: the IC50 is > 50 µM.

Regarding `CC(C)N1C[C@H](C)[C@H](NC(=O)c2ccc(N3CCCC3)cc2)C1` (racemic) [compound 30, (±)-cis-N-[4-methyl-1-(propan-2-yl)pyrrolidin-3-yl]-4-(pyrrolidin-1-yl)benzamide], the half-inhibitory concentration (IC50) is > 50 µM.

On to `C[C@H]1CN(C2CC2)C[C@H]1NC(=O)c1cccc(N2CCCC2)c1` (racemic) [compound 31, (±)-cis-N-[1-cyclopropyl-4-methylpyrrolidin-3-yl]-3-(pyrrolidin-1-yl)benzamide], for which the IC50 was > 50 µM.

In the case of `CC(C)N1C[C@@H](C)[C@H](NC(=O)c2ccc(N3CCCC3)cc2)C1` (racemic) [compound 33, (±)-trans-N-[4-methyl-1-(propan-2-yl)pyrrolidin-3-yl]-4-(pyrrolidin-1-yl)benzamide], the IC50 was > 50 µM.

For `C[C@@H]1CN(C2CC2)C[C@H]1NC(=O)c1cccc(N2CCCC2)c1` (racemic) [compound 34, (±)-trans-N-[1-cyclopropyl-4-methylpyrrolidin-3-yl]-3-(pyrrolidin-1-yl)benzamide], the half-inhibitory concentration (IC50) is > 50 µM.

With `CC(C)N1C[C@H](C)[C@H](NC(=O)c2nc(C3CC3)cs2)C1` (racemic) [compound 35, (±)-cis-4-cyclopropyl-N-[4-methyl-1-(propan-2-yl)pyrrolidin-3-yl]-1,3-thiazole-2-carboxamide], the IC50 was > 50 µM.

Take `CC(C)N1C[C@@H](C)[C@H](NC(=O)c2nc(C3CC3)cs2)C1` (racemic) [compound 36, (±)-trans-4-cyclopropyl-N-[4-methyl-1-(propan-2-yl)pyirolidin-3-yl]-1,3-thiazole-2-carboxamide]: the IC50 was > 50 µM.

For the compound `CC(C)N1C[C@H](NC(=O)c2ccc3c(c2)NC(=O)CO3)[C@@H](C)C1` (racemic) [compound 37, (±)-trans-N-[4-methyl-1-(propan-2-yl)pyrrolidin-3-yl]-3-oxo-3,4-dihydro-2H-1,4-benzoxazine-6-carboxamide], the IC50 is > 50 µM.

Turning to `CC(C)N1C[C@H](C)[C@H](NC(=O)c2noc(C3CC3)n2)C1` (racemic) [compound 38, (±)-cis-5-cyclopropyl-N-[4-methyl-1-(propan-2-yl)pyrrolidin-3-yl]-1,2,4-oxadiazole-3-carboxamide], the IC50 was > 50 µM.

In the case of `CC(C)N1C[C@@H](C)[C@H](NC(=O)c2noc(C3CC3)n2)C1` (racemic) [compound 39, (±)-trans-5-cyclopropyl-N-[4-methyl-1-(propan-2-yl)pyrrolidin-3-yl]-1,2,4-oxadiazole-3-carboxamide], the IC50 was > 50 µM.

For the compound `CC(=O)N[C@@H]1CN(C(C)C)C[C@@H]1C` (racemic) [compound 40, (±)-cis-N-[4-methyl-1-(propan-2-yl)pyrrolidin-3-yl]acetamide], the IC50 was > 50 µM.

With `CC(C)N1C[C@H](C)[C@H](NC(=O)c2nnc(C3CC3)s2)C1` (racemic) [compound 41, (±)-cis-5-cyclopropyl-N-[4-methyl-1-(propan-2-yl)pyrrolidin-3-yl]-1,3,4-thiadiazole-2-carboxamide], the IC50 is 2.68 µM.

On to `CC(C)N1C[C@H](C)[C@H](NC(=O)c2cncc(C3CC3)n2)C1` (racemic) [compound 42, (±)-cis-6-cyclopropyl-N-[4-methyl-1-(propan-2-yl)pyrrolidin-3-yl]pyrazine-2-carboxamide], for which the IC50 is > 50 µM.

As for `CC(C)N1C[C@@H](C)[C@H](NC(=O)c2cncc(C3CC3)n2)C1` (racemic) [compound 43, (±)-trans-6-cyclopropyl-N-[4-methyl-1-(propan-2-yl)pyrrolidin-3-yl]pyrazine-2-carboxamide], the 50% inhibitory concentration (IC50) is > 50 µM.

As to `CC1CN(C(C)C)CC1NC(=O)c1ccn(C(C)C)n1` (racemic) [compound 44, (±)-trans-N-[4-methyl-1-(propan-2-yl)pyrrolidin-3-yl]-1-(propan-2-yl)-1H-pyrazole-3-carboxamide], the IC50 was > 50 µM.

Regarding `CC(C)N1C[C@@H](C)[C@H](NC(=O)c2ccn(C(C)C)n2)C1` (racemic) [compound 45, (±)-trans-N-[4-methyl-1-(propan-2-yl)pyrrolidin-3-yl]-1-(propan-2-yl)-1H-pyrazole-3-carboxamide], the IC50 is > 50 µM.

`CC(C)N1C[C@@H](C)[C@@H](NC(=O)c2cnn(C(C)C)c2)C1` (racemic) [compound 46, (±)-cis-N-[4-methyl-1-(propan-2-yl)pyrrolidin-3-yl]-1-(propan-2-yl)-1H-pyrazole-4-carboxamide]: the IC50 is > 50 µM.

`CC(C)N1C[C@H](NC(=O)c2cnn(C(C)C)c2)[C@@H](C)C1` (racemic) [compound 47, (±)-trans-N-[4-methyl-1-(propan-2-yl)pyrrolidin-3-yl]-1-(propan-2-yl)-1H-pyrazole-4-carboxamide]: the concentration for half-maximal inhibition (IC50) is > 50 µM.

Take `CC(C)N1C[C@@H](C)[C@H](NC(=O)c2nnc(C3CC3)s2)C1` (racemic) [compound 48, (±)-trans-5-cyclopropyl-N-[4-methyl-1-(propan-2-yl)pyrrolidin-3-yl]-1,3,4-thiadiazole-2-carboxamide]: the IC50 is 39.5 µM.

As to `CC(C)N1C[C@@H](C)[C@H](NC(=O)c2nnc(C3CC3)o2)C1` (racemic) [compound 49, (±)-trans-5-cyclopropyl-N-[4-methyl-1-(propan-2-yl)pyrrolidin-3-yl]-1,3,4-oxadiazole-2-carboxamide], the IC50 worked out at 26.8 µM.

In the case of `CC(C)N1C[C@H](C)[C@H](NC(=O)c2cc(C3CC3)ncn2)C1` (racemic) [compound 50, (±)-cis-6-cyclopropyl-N-[4-methyl-1-(propan-2-yl)pyrrolidin-3-yl]pyrimidine-4-carboxamide], the IC50 was determined as 16.7 µM.

As for `CC(C)N1C[C@H](C)[C@H](NC(=O)c2cnc(C3CC3)cn2)C1` (racemic) [compound 51, (±)-cis-5-cyclopropyl-N-[4-methyl-1-(propan-2-yl)pyrrolidin-3-yl]pyrazine-2-carboxamide], the half-inhibitory concentration (IC50) is > 50 µM.

Take `CC(C)N1C[C@@H](C)[C@H](NC(=O)c2cnc(C3CC3)cn2)C1` (racemic) [compound 52, (±)-trans-5-cyclopropyl-N-[4-methyl-1-(propan-2-yl)pyrrolidin-3-yl]pyrazine-2-carboxamide]: the half-maximal inhibitory concentration (IC50) is > 50 µM.

Turning to `CC(C)N1C[C@H](C)[C@H](NC(=O)c2nnc(C3CC3)o2)C1` (racemic) [compound 53, (±)-cis-5-cyclopropyl-N-[4-methyl-1-(propan-2-yl)pyrrolidin-3-yl]-1,3,4-oxadiazole-2-carboxamide], the IC50 amounted to 4.64 µM.
